18 compounds from ChEMBL document CHEMBL1681742, “Novel second generation analogs of eribulin. Part I: Compounds containing a lipophilic C32 side chain overcome P-glycoprotein susceptibility” (Bioorg Med Chem Lett, 2011) can be followed below.

A short description of series [1]: Antiproliferative activity against human MES-SA cells assessed as growth inhibition. The format is functional, cell-based.
Series [2] in a line: Fold resistance, ratio of IC50 for antiproliferative activity for P-gp overexpressing human MES-SA/Dx5-Rx1cells to IC50 for antiproliferative activity for human MES-SA cells.
Series [3] in a line: Antiproliferative activity against P-gp overexpressing human MES-SA/Dx5-Rx1 cells assessed as growth inhibition. The format is functional.
A short description of series [4]: Cytotoxicity against human IMR90 cells up to 1 uM. The format is cell-based. The note with it: imr-90.
A further series concerns HCT-15. Put plainly: Antiproliferative activity against human HCT15 cells assessed as growth inhibition. The series is classed as functional, cell-based.
The next series deals with DLD-1. Put plainly: Antiproliferative activity against human DLD1 cells assessed as growth inhibition. The format is functional, cell-based.

pIC50: −log10 of the molar value. Where only a bound is given, the exact number is not on record here.

Consider `COc1cccc2c1C(=O)c1c(O)c3c(c(O)c1C2=O)C[C@@](O)(C(=O)CO)C[C@@H]3O[C@H]1C[C@H](N)[C@H](O)[C@H](C)O1` [DOXORUBICIN], for which the pIC50 is 7.58 in series [1], 5.57 in series [3] and 6.81 with HCT-15. Besides, the “Ratio IC50” value in series [2] came to 134. The Activity result in series [4] is recorded as “Non-toxic”.
Take `CC(=O)O[C@H]1C(=O)[C@@]2(C)[C@H]([C@H](OC(=O)c3ccccc3)[C@]3(O)C[C@H](OC(=O)[C@H](O)[C@@H](NC(=O)c4ccccc4)c4ccccc4)C(C)=C1C3(C)C)[C@]1(OC(C)=O)CO[C@@H]1C[C@@H]2O` [PACLITAXEL]: the pIC50 in series [1] was 8.53; in series [3], below 6.00. The “Ratio IC50” value in series [2] is above 338. Besides, the Activity entry in series [4] is “Non-toxic”.
Consider `C=C1C[C@@H]2CC[C@@]34C[C@H]5O[C@H]6[C@@H](O3)[C@H]3O[C@H](CC[C@@H]3O[C@H]6[C@H]5O4)CC(=O)C[C@@H]3[C@@H](OC)[C@@H](C[C@H](O)COCC)O[C@H]3C[C@H]3O[C@@H](CC[C@@H]1O2)C[C@@H](C)C3=C`, for which the negative-log IC50 (pIC50) in series [1] was 9.70; with DLD-1, 9.57; in series [3] it was 8.65; in the series with HCT-15 it was 9.64. Besides, the “Ratio IC50” value in series [2] is 11.2. Also, in series [4], the Activity entry is listed as “Non-toxic”.
For the compound `C=C1C[C@@H]2CC[C@@]34C[C@H]5O[C@H]6[C@@H](O3)[C@H]3O[C@H](CC[C@@H]3O[C@H]6[C@H]5O4)CC(=O)C[C@@H]3[C@@H](OC)[C@@H](CC(=O)OCC)O[C@H]3C[C@H]3O[C@@H](CC[C@@H]1O2)C[C@@H](C)C3=C`, the pIC50 in series [1] was 9.43; with DLD-1, 9.35; in series [3], 8.93; in the series on HCT-15, 9.40. In addition, the “Ratio IC50” value in series [2] was determined as 3.21. Also, in series [4], the Activity entry is given as “Non-toxic”.
Turning to `C=C1C[C@@H]2CC[C@@]34C[C@H]5O[C@H]6[C@@H](O3)[C@H]3O[C@H](CC[C@@H]3O[C@H]6[C@H]5O4)CC(=O)C[C@@H]3[C@@H](OC)[C@@H](CCCO)O[C@H]3C[C@H]3O[C@@H](CC[C@@H]1O2)C[C@@H](C)C3=C`, the pIC50 is 9.52 in series [1], 9.33 in the series with DLD-1, 8.25 in series [3] and 9.40 with HCT-15. Besides, in series [2], the “Ratio IC50” value is recorded as 18.88. In series [4], the Activity result is “Non-toxic”.
As for `C=C1C[C@@H]2CC[C@@]34C[C@H]5O[C@H]6[C@@H](O3)[C@H]3O[C@H](CC[C@@H]3O[C@H]6[C@H]5O4)CC(=O)C[C@@H]3[C@@H](OC)[C@@H](C[C@H]4COCCO4)O[C@H]3C[C@H]3O[C@@H](CC[C@@H]1O2)C[C@@H](C)C3=C`, the pIC50 in series [1] was 9.00; in the series on DLD-1, 9.06; in series [3], 7.64; in the series with HCT-15 it was 8.91. In addition, the “Ratio IC50” value in series [2] came to 22.96. Also, the Activity result in series [4] is “Non-toxic”.
For `C#CC[C@H]1O[C@H]2C[C@H]3O[C@@H](CC[C@@H]4O[C@@H](CC[C@@]56C[C@H]7O[C@H]8[C@@H](O5)[C@H]5O[C@H](CC[C@@H]5O[C@H]8[C@H]7O6)CC(=O)C[C@@H]2[C@H]1OC)CC4=C)C[C@@H](C)C3=C`, the pIC50 in series [1] is 9.14; in the series with DLD-1, 8.84; in series [3] it was 8.70; with HCT-15 it was 9.08. Besides, the “Ratio IC50” value in series [2] is 2.75. The Activity entry in series [4] is listed as “Non-toxic”.
`C=C1C[C@@H]2CC[C@@]34C[C@H]5O[C@H]6[C@@H](O3)[C@H]3O[C@H](CC[C@@H]3O[C@H]6[C@H]5O4)CC(=O)C[C@@H]3[C@@H](OC)[C@@H](CC(=O)O)O[C@H]3C[C@H]3O[C@@H](CC[C@@H]1O2)C[C@@H](C)C3=C`: the pIC50 in series [1] is 7.91; in the series with DLD-1 it was 7.76; in series [3], 7.02; in the series on HCT-15, 7.74. The “Ratio IC50” value in series [2] was 7.72. Further, the Activity result in series [4] is reported as “Non-toxic”.
In the case of `C=C1C[C@@H]2CC[C@@]34C[C@H]5O[C@H]6[C@@H](O3)[C@H]3O[C@H](CC[C@@H]3O[C@H]6[C@H]5O4)CC(=O)C[C@@H]3[C@@H](OC)[C@@H](C[C@@H](CC#N)OC)O[C@H]3C[C@H]3O[C@@H](CC[C@@H]1O2)C[C@@H](C)C3=C`, the negative logarithm of the IC50 (pIC50) was 9.40 in series [1], 8.98 in the series on DLD-1, 8.41 in series [3] and 9.21 with HCT-15. In addition, the “Ratio IC50” value in series [2] was found to be 9.86. Moreover, in series [4], the Activity result is reported as “Non-toxic”.
As to `C=C1C[C@@H]2CC[C@@]34C[C@H]5O[C@H]6[C@@H](O3)[C@H]3O[C@H](CC[C@@H]3O[C@H]6[C@H]5O4)CC(=O)C[C@@H]3[C@@H](OC)[C@@H](CC(=O)OC)O[C@H]3C[C@H]3O[C@@H](CC[C@@H]1O2)C[C@@H](C)C3=C`, the pIC50 in series [1] is 9.46; with DLD-1, 9.08; in series [3], 8.83; in the series with HCT-15 it was 9.36. The “Ratio IC50” value in series [2] stood at 4.23. Further, the Activity entry in series [4] is recorded as “Non-toxic”.
As for `C=C1C[C@@H]2CC[C@@]34C[C@H]5O[C@H]6[C@@H](O3)[C@H]3O[C@H](CC[C@@H]3O[C@H]6[C@H]5O4)CC(=O)C[C@@H]3[C@@H](OC)[C@@H](CCOC)O[C@H]3C[C@H]3O[C@@H](CC[C@@H]1O2)C[C@@H](C)C3=C`, the pIC50 is 9.72 in series [1], 9.42 in the series with DLD-1, 9.11 in series [3] and 9.62 with HCT-15. Further, in series [2], the “Ratio IC50” value was 4.08. The Activity result in series [4] is “Non-toxic”.
Regarding `CC[C@]1(O)C[C@@H]2CN(CCc3c([nH]c4ccccc34)[C@@](C(=O)OC)(c3cc4c(cc3OC)N(C)[C@H]3[C@@](O)(C(=O)OC)[C@H](OC(C)=O)[C@]5(CC)C=CCN6CC[C@]43[C@@H]65)C2)C1` [VINBLASTINE], the pIC50 is 8.64 in series [1], 6.36 in series [3] and 7.55 in the series on HCT-15. In addition, the “Ratio IC50” value in series [2] is 224.18. Further, the Activity entry in series [4] is listed as “Non-toxic”.
Turning to `C=C1C[C@@H]2CC[C@@]34C[C@H]5O[C@H]6[C@@H](O3)[C@H]3O[C@H](CC[C@@H]3O[C@H]6[C@H]5O4)CC(=O)C[C@@H]3[C@@H](OC)[C@@H](C[C@@H](CN=[N+]=[N-])OCc4ccccc4)O[C@H]3C[C@H]3O[C@@H](CC[C@@H]1O2)C[C@@H](C)C3=C`, the pIC50 in series [1] is 8.32; in the series on DLD-1, 7.98; in series [3], 7.44; with HCT-15, 8.15. Moreover, the “Ratio IC50” value in series [2] came to 7.6. Besides, the Activity result in series [4] is reported as “Non-toxic”.
`C=C1C[C@@H]2CC[C@@]34C[C@H]5O[C@H]6[C@@H](O3)[C@H]3O[C@H](CC[C@@H]3O[C@H]6[C@H]5O4)CC(=O)C[C@@H]3[C@@H](OC)[C@@H](CC(=O)COC)O[C@H]3C[C@H]3O[C@@H](CC[C@@H]1O2)C[C@@H](C)C3=C`: the pIC50 in series [1] was 9.36; in the series on DLD-1, 9.17; in series [3], 8.53; in the series with HCT-15, 9.21. Also, in series [2], the “Ratio IC50” value turned out to be 6.7. Moreover, the Activity entry in series [4] is “Non-toxic”.
In the case of `C=C1C[C@@H]2CC[C@@]34C[C@H]5O[C@H]6[C@@H](O3)[C@H]3O[C@H](CC[C@@H]3O[C@H]6[C@H]5O4)CC(=O)C[C@@H]3[C@@H](OC)[C@@H](C[C@@H](CO)OC)O[C@H]3C[C@H]3O[C@@H](CC[C@@H]1O2)C[C@@H](C)C3=C`, the negative logarithm of the IC50 (pIC50) in series [1] was 9.52; with DLD-1, 9.12; in series [3], 7.95; with HCT-15, 9.17. Besides, in series [2], the “Ratio IC50” value is 37.73. In addition, the Activity result in series [4] is “Non-toxic”.
In the case of `C=C1C[C@@H]2CC[C@@]34C[C@H]5O[C@H]6[C@@H](O3)[C@H]3O[C@H](CC[C@@H]3O[C@H]6[C@H]5O4)CC(=O)C[C@@H]3[C@@H](OC)[C@@H](C[C@@H](CN=[N+]=[N-])OC)O[C@H]3C[C@H]3O[C@@H](CC[C@@H]1O2)C[C@@H](C)C3=C`, the pIC50 in series [1] was 9.36; with DLD-1 it was 9.11; in series [3], 8.73; in the series with HCT-15, 9.32. Besides, the “Ratio IC50” value in series [2] is given as 4.19. In addition, in series [4], the Activity entry is reported as “Non-toxic”.
Turning to `C=C1C[C@@H]2CC[C@@]34C[C@H]5O[C@H]6[C@@H](O3)[C@H]3O[C@H](CC[C@@H]3O[C@H]6[C@H]5O4)CC(=O)C[C@@H]3[C@@H](OC)[C@@H](C[C@H](O)COC(C)=O)O[C@H]3C[C@H]3O[C@@H](CC[C@@H]1O2)C[C@@H](C)C3=C`, the pIC50 was 9.96 in series [1] and 8.46 in series [3]. For the same compound, the “Ratio IC50” value in series [2] is 33. In series [4], the Activity result was “Non-toxic”.
Consider `C=C1C[C@@H]2CC[C@@]34C[C@H]5O[C@H]6[C@@H](O3)[C@H]3O[C@H](CC[C@@H]3O[C@H]6[C@H]5O4)CC(=O)C[C@@H]3[C@@H](OC)[C@@H](CC)O[C@H]3C[C@H]3O[C@@H](CC[C@@H]1O2)C[C@@H](C)C3=C`, for which the values for the pIC50 in series [1] and in series [3] were 8.97 and 8.87, respectively. Moreover, the “Ratio IC50” value in series [2] was found to be 1.81. Further, the Activity entry in series [4] is reported as “Non-toxic”.

The term pIC50 denotes −log10 of the IC50, conventionally taken in molar units.
